In patent EP4160211A1, “DETECTING THE EXPOSURE OF A SUBJECT TO A THYROID DISRUPTING CHEMICAL, EVEN BEFORE HYPOTHYROIDISM APPEARS” (Moreno Navarro, José Carlos, priority 2021, dated 2023):
Where two headings read alike, the source gives them in different places.

Columns and labels:
Dehal1 = molecular target: T1, Dehal1 (Homo sapiens, UniProt Q6PHW0); experiment: In vitro Dehal1 inhibition assay (inhibition of 125I-MIT deiodination in homogenates of DEHAL1-transfected HEK293 cells); type: biochemical
T1 construct: expressed in transfected cells; host or cells: HEK293
T1 sequence (Q6PHW0 1-289): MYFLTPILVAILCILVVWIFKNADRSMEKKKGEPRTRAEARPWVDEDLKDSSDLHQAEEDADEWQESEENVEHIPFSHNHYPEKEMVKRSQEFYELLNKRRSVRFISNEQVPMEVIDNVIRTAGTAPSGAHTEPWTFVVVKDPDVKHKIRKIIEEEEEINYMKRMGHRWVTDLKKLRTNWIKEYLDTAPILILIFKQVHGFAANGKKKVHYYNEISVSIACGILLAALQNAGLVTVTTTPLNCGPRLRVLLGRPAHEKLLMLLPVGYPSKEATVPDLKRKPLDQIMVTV
Method: Human embryonic kidney (HEK293) cells were grown in Dulbecco's modified Eagle medium (Gibco) supplemented with 10% fetal calf serum and 0.1 mM flavin mononucleotide (FMN, MP Biochemicals) in 6-well plates. At 50% confluency, cells were transfected with 1 µg of wild-type or mutant DEHAL1 plasmid or empty pcDNA3.1 plasmid, using Fugene6 (Roche). After 24 h incubation, cells were washed with 1 ml PBS and collected in 0.5 ml PED buffer (0.1 M phosphate, pH 7.2, 2 mM EDTA, 1 mM dithiothreitol) per well and kept on ice. Samples were sonicated twice for 10 sec using Soniprep150, frozen on dry ice-ethanol and stored at -80 °C. For experiments testing FMN-response, culture medium was supplemented with 0-2 mM FMN.
The experiments follow described methods to determine the MIT deiodination capacity of Dehal1-transfected cells (8), adding the candidate chemicals to test their capacity to inhibit such reaction. Basically, labelled [^125I]MIT was prepared by radioiodination of L-tyrosine (Sigma-Aldrich) with ^125I - (specific activity: 15 Ci/mg, Amersham Biosciences) using the chloramine-T method and purified by chromatography on cation-exchange resin (Dowex 50WX2-200, Sigma-Aldrich). […] Incubations contained […] [^125I]MIT, 0.1 µM unlabeled MIT and 10-25 µg cell homogenate protein in a final volume of 0.1 ml PED buffer. Reactions were started by the addition of NADPH (final concentration 0.1 mM), and the mixtures were incubated for 60 min at 37°C. Reactions were stopped by the addition of 0.9 ml of 10% acetic acid on ice. Samples were applied to 2 ml Dowex 50WX2-200 columns, and successively eluted with 3x1 ml 10% acetic acid (containing eluted iodide), 1 ml water, and 4×1ml 1 M NH4OH (containing iodotyrosines). Radioactivity was measured in each fraction in a NE1600 gamma counter (NE Technologies) and percentage deiodination was calculated. Protein concentrations in cell homogenates were measured by Bradford's assay; iodotyrosine deiodinase activity was corrected for the slight 1251 - production in empty pcDNA3.1-transfected cell homogenates and expressed per mg protein.
For the general screen of inhibition potential of each compound, 10 µM unlabeled chemicals tested (Sigma-Aldrich) were added to the incubation mixture together with […] unlabeled MIT with no further modifications on the protocol above. Said chemical tested were: Tetrabromobisphenol A (TBBPA), Bisphenol A (BPA), Pentachlorophenol (PCP), tetraiodophenol (TIP), Tetrabromophenol (TBP), tetrachlorophenol (TCP), tetraafluorophenol (TFP), Di-iodo-nitro-Pheol (DINP), Di-chloro-nitrophenol (DCNP), Dibromophenol (DBP), Diclorophenol (DCP), iodophenol (IP), Bromophenol (BP), Fluorophenol (FP), phenol (P), Tyrosien(Tyr), mononitrotyrosine (MNT), monochlorotyrosine (MCT), Monoiodotyrosine (MIT), Diiodotyrosine (DIT). As negative controls: empty pcDNA-transfected cells, DMSO, NaOH and Buffer.
Crude deiodination capacity obtained in individual chemical-containing mixture was calculated, including the vehicle (DMSO)-containing mixture. Percentage inhibition of each compound was determined with respect to the vehicle containing mixture. For inhibition curves of particular compounds, equimolar concentrations of unlabeled MIT (0, 0.1, 1, 10, 100 µM) and BPA, TBBPA, PCP and MNT were used, and % inhibition of individual compounds was calculated as above.

thyroid hormone axis = experiment: In vivo administration to mice: hormonal and biochemical effects in plasma and urine; conditions: for UIC / UIC % variation: urine
Method: Mice. Female wild type mice from C57BI/6 J strain were purchased from Charles River company. Animals were maintained under standard conditions of temperature (22-24°C), humidity (40-50%), 12-12 hours of dark/light cycle, water and rodent diet ad libitum. Five months old female mice were acclimatized prior to the experiment and handled based on animal bioethical protocols. The experimental procedures were approved by the Research Ethical Committee of the Autonomous University of Madrid and the competent department of Comunidad de Madrid. Tetrabromobisphenol A powder (TBBPA, 97% purity) obtained through Sigma-Aldrich was dissolved in a vehicle containing 25% ethanol and 75% of peanut oil. A TBBPA dose of 500 mg/kg of body weight was injected subcutaneously for 7 days. Blood and urine collection were performed at the end of the experiment (Fig. 1).
Blood, urine and tissue collection. At day 7, blood was collected from cardiac puncture in heparinized tubes and centrifuged (2000 g for 10 minutes) to isolate plasma. Urine was collected using hydrophobic sand (Coastline Global, USA). Samples were kept at -20°C until used. For tissue isolation, mice were kept under deep anesthesia (Sevorane) and euthanized by cervical dislocation.
Previously published methods were modified to allow the simultaneous quantification of MIT, DIT, T3, T4.
Sample preparation: 100 µL of urine/plasma were added with suitable amounts of stable isotope-labeled internal standards (5.4 pmol 13C9-MIT, 4.0 pmol 13C9-DIT, 2.8 pmol 13C6-T3, 2.4 pmol 13C6-T4), vortexed, stored 30 min at room temperature to equilibrate, and deproteinized with the addition of 300µL of cold-acetone and the storage at 4°C for 30 min. After centrifugation at 22780 × g for 10 min, supernatants were dried at 40 °C under a gentle stream of nitrogen, derivatized with 200 µL of 3.0 N hydrochloric acid in n-butanol and incubated for 45 min at 60 °C, for the formation of the corresponding butyl esters of tyrosines, thyroid hormones, and their internal standards. After further evaporation to dryness, the sample was reconstituted with 500 µL of 0,1 M potassium buffer (pH=4) and loaded onto Agilent (Santa Clara, CA, USA) Bond-Elut Certify 130 mg SPE cartridges, to perform the extraction according to the procedure described by Saba et al.. The eluate was dried once again under nitrogen, the dried residue was reconstituted with 100 µL of acetonitrile/0.1 M hydrochloric acid (50/50 by volume), and 1µL of it was injected into the HPLC-MS-MS system. Calibration curves ranged from 0.1 to 100.0 ng/mL and were daily prepared by serial dilution in methanol and derivatized with samples.
Instrument layout: AB-Sciex (Concord, Ontario, Canada) QTRAP 6500+ triple quadrupole mass spectrometer with ESI source, coupled to an Agilent (Santa Clara, CA, USA) 1290 UHPLC system, fitted with a 110 Å, 2x50 mm, 3µm particle size, Gemini C18 column (Phenomenex, Torrance, CA).
Operative conditions: the chromatographic separation was carried out at 400 µL/min as a flow rate, using methanol/acetonitrile (20/80, by volume) added with 0.1% formic acid (solvent A) and water containing 0.1% formic acid (solvent B). The elution gradient was the following: 95 % solvent B from 0 to 3 min; 35 % solvent B from 3 to 8.5 min; 0 % solvent B from 8.5 to 9 min; 0 % solvent B from 9 to 11 min; 95 % solvent B from 11 to 14 min (equilibration step). […] Three transitions were used to monitor each compound and internal standard: that one with the highest signal/noise ratio was used as a quantifier (Q), while the other two as qualifiers (q).

[1] = dose-response inhibition assay, 0-100 µM
[2] = general screen, compound at 10 µM
[3] = MNT 1mg/Kg b.w./day, for 7 days
[4] = vs WT, MNT 1mg/Kg b.w./day, for 7 days
[5] = read-out: inhibition of Dehal1 activity
[6] = TBBPA 500 mg/kg b.w/day subcutaneously for 7 days
[7] = TBBPA 500 mg/kg b.w/day subcutaneously for 7 days, plasma
[8] = vs WT, TBBPA 500 mg/kg b.w/day for 7 days
[9] = vs WT, TBBPA 500 mg/kg b.w/day for 7 days, plasma

SMILES: CC(C)(c1ccc(O)cc1)c1ccc(O)cc1 [BPA, Bisphenol A, reference compound]
- inhibition capacity (Dehal1; [1]): no inhibition capacity

SMILES: N[C@@H](Cc1cc(I)c(O)c(I)c1)C(=O)O [DIT, Diiodotyrosine, reference compound]
- inhibition of labeled-MIT deiodination (Dehal1; [2]): maximal inhibition

SMILES: N[C@@H](Cc1ccc(O)c(I)c1)C(=O)O [MIT, Monoiodotyrosine, reference compound]
- inhibition of labeled-MIT deiodination (Dehal1; [2]): maximal inhibition

SMILES: N[C@@H](Cc1ccc(O)c([N+](=O)[O-])c1)C(=O)O [MNT, 3-L-nitrotyrosine, reference compound]
- DIT-urine (thyroid hormone axis; [3]): 0.29 ± 0.06 ng/mL
- MIT-urine (thyroid hormone axis; [3]): 1.94 ± 0.13 ng/mL
- MIT/DIT urine (thyroid hormone axis; [3]): 6,69
- T3 (thyroid hormone axis; [3]): 0.27 ± 0.02 ng/mL
- T4 (thyroid hormone axis; [3]): 25.35 ± 1.2 ng/mL
- TSH (thyroid hormone axis; [3]): 1.07 ± 0.07 mU/L
- UIC (thyroid hormone axis; [3]): 198 ± 14.43 µg/L
- DIT-urine % variation (thyroid hormone axis; [4]): -19%
- MIT-urine % variation (thyroid hormone axis; [4]): +46%
- MIT/DIT urine % variation (thyroid hormone axis; [4]): +80%
- T3 % variation (thyroid hormone axis; [4]): -5%
- T4 % variation (thyroid hormone axis; [4]): +8%
- TSH % variation (thyroid hormone axis; [4]): +7%
- UIC % variation (thyroid hormone axis; [4]): +47%
- IC50 (Dehal1; [1]): < 0.01 µM
- inhibition of labeled-MIT deiodination (Dehal1; [2]): maximal inhibition

SMILES: Oc1c(Cl)c(Cl)c(Cl)c(Cl)c1Cl [PCP, Pentachlorophenol]
- IC50 (Dehal1; [1]): ~25 µM
- inhibition at 10 µM (Dehal1; [5]): 22%
- inhibition at 100 µM (Dehal1; [5]): 78%
- inhibition at 10 µM (Dehal1; read-out: inhibition of labeled-MIT deiodination): 55%

SMILES: CC(C)(c1cc(Br)c(O)c(Br)c1)c1cc(Br)c(O)c(Br)c1 [TBBPA, Tetrabromobisphenol A]
- T3 (thyroid hormone axis; TBBPA 500 mg/kg b.w/day for 7 days, plasma): remained unchanged
- DIT-plasma (thyroid hormone axis; [6]): 0.06 ± 0.01 ng/mL
- DIT-urine (thyroid hormone axis; [6]): 0.23 ± 0.04 ng/mL
- MIT-plasma (thyroid hormone axis; [6]): 0.21 ± 0.01 ng/mL
- MIT-urine (thyroid hormone axis; [6]): 2.53 ± 0.11 ng/mL
- MIT/DIT plasma (thyroid hormone axis; [6]): 3,5
- MIT/DIT urine (thyroid hormone axis; [6]): 11
- T4 (thyroid hormone axis; [7]): 14.45 ± 1.65 ng/mL
- TSH (thyroid hormone axis; [7]): 1.3 ± 0.025 mU/L
- UIC (thyroid hormone axis; [6]): 170.6 ± 13.9 µg/L
- DIT-plasma % variation (thyroid hormone axis; [8]): -62%
- DIT-urine % variation (thyroid hormone axis; [8]): -36%
- MIT-urine % variation (thyroid hormone axis; [8]): +73%
- MIT/DIT plasma % variation (thyroid hormone axis; [8]): +250%
- MIT/DIT urine % variation (thyroid hormone axis; [8]): +172%
- T4 % variation (thyroid hormone axis; [9]): -38%
- TSH % variation (thyroid hormone axis; [9]): +23%
- UIC % variation (thyroid hormone axis; [8]): +127%
- IC50 (Dehal1; [1]): ~25 µM
- inhibition at 10 µM (Dehal1; dose-response inhibition assay, 10 µM, read-out: inhibition of Dehal1 activity): 18%
- inhibition at 100 µM (Dehal1; dose-response inhibition assay, 100 µM, read-out: inhibition of Dehal1 activity): 78%
- inhibition at 10 µM (Dehal1; general screen, compound at 10 µM, read-out: inhibition of labeled-MIT deiodination): 37%
